Measurements published in paper PMC10387993, “New pyrimidine-N-β-D-glucosides: synthesis, biological evaluation, and molecular docking investigations” (Turkish Journal of Chemistry, 2023).
Converted amounts (≈) assume the structure as drawn.

Tests used:
Format in all cases: cell-based
[1] = in vitro; settings: human, LC50
Procedure, shortened: (§1)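 In this MTT proliferation screen, formazan formed over 4 h was read at 560 nm against a 690 nm reference. Each line was tested at least three times, and the IC50 was taken as the concentration inhibiting half of the cells.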

[2] = test system: normal FL cells; assay: cells; settings: FL normal cells, MTT
Procedure, shortened: as §1

[3] = LDH cytotoxic activity assay, HeLa; settings: human, HeLa cells
Procedure, shortened: (§2)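 Harvest ~80%-confluent cells with trypsin-EDTA, seed ~5 × 10^3 per well in DMEM or RPMI 1640 containing 10% FBS, then add compound at 25–100 μg/mL (four levels) for 24 h at 37 °C. Finish by reading LDH activity at 492–630 nm.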

[4] = test system: E. faecalis VRE ATCC 19433; assay: Microdilution MIC assay; settings: Enterococcus faecalis; E. faecalis VRE ATCC 19433, 24 h at 35 °C
Procedure, shortened: (§3)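 Microwell dilution; 24 h, 35 °C; visual read; MIC = lowest conc. without turbidity.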

[5] = test system: S. aureus MRSA ATCC 46300; assay: Microdilution MIC assay; settings: Staphylococcus aureus; S. aureus MRSA ATCC 46300, 24 h at 35 °C; read-out: MIC
Procedure, shortened: as §3

[6] = test system: S. gordonii NCTC 7870; assay: Microdilution MIC assay; settings: Streptococcus gordonii, NCTC7870; S. gordonii NCTC 7870, 24 h at 35 °C
Procedure, shortened: as §3

[7] = test system: E. coli ATCC 25922; assay: Microdilution MIC assay; settings: Escherichia coli, ATCC25922; E. coli ATCC 25922, 24 h at 35 °C
Procedure, shortened: as §3

[8] = test system: S. aureus ATCC 25923; assay: Microdilution MIC assay; settings: Staphylococcus aureus, ATCC25923, 24 h, S. aureus ATCC 25923, 24 h at 35 °C; read-out: MIC
Procedure, shortened: as §3

[9] = test system: E. coli ESBL ATCC 35218; assay: Microdilution MIC assay; settings: Escherichia coli, ATCC35218; E. coli ESBL ATCC 35218, 24 h at 35 °C
Procedure, shortened: as §3

[10] = LDH cytotoxic activity assay, HT29; settings: human, HT29 cells
Procedure, shortened: as §2

[11] = test system: HeLa; assay: cells; settings: Homo sapiens
Procedure, shortened: as §1

[12] = test system: C6 (Rat brain glioma); assay: cells; settings: Rattus norvegicus
Procedure, shortened: as §1

[13] = test system: HT29; assay: cells; settings: Homo sapiens
Procedure, shortened: as §1

[14] = test system: MCF7; assay: cells; settings: Homo sapiens
Procedure, shortened: as §1

[15] = test system: A549; assay: cells; settings: Homo sapiens
Procedure, shortened: as §1

[16] = test system: Hep3B; assay: cells; settings: Homo sapiens
Procedure, shortened: as §1

[17] = LDH cytotoxic activity assay, C6; settings: rat, C6 glioma cells
Procedure, shortened: as §2

With CC(=O)OC[C@H]1O[C@@H](Nc2nc(-c3cccnc3)cc(-c3ccccc3C)n2)[C@H](OC(C)=O)[C@@H](OC(C)=O)[C@@H]1OC(C)=O [Compound 11, 2,3,4,6-tetra-O-acetyl-N-[4-(2-methylphenyl)-6-pyridin-3-ylpyrimidin-2-yl]-β-D-glucopyranosylamine] the LC50 (concentration causing 50% net cell loss) [1] was over 500 µg/mL, the GI50 [2] was 11.2 µg/mL (≈ 18.8 µM) and the IC50 ([2]; read-out: IC50) was over 500 µg/mL. The IC (total growth inhibition) ([2]; read-out: TGI) was over 500 µg/mL, the cytotoxicity at 24 h, 25 μg/mL ([3]; 25 μg/mL) was 17.2% and the cytotoxicity at 24 h, 50 μg/mL ([3]; 50 μg/mL) was 29.8%. For the same molecule, the cytotoxicity at 24 h, 75 μg/mL ([3]; 75 μg/mL) was 45%, the cytotoxicity at 24 h, 100 μg/mL ([3]; 100 μg/mL) was 49.8% and the MIC [4] was over 1000 µg/mL. The MIC [5] was 1000 µg/mL (≈ 1690 µM), the MIC [6] was over 1000 µg/mL and the MIC [7] was over 1000 µg/mL. For the same molecule, the MIC [8] was over 1000 µg/mL, the MIC [9] was over 1000 µg/mL and the cytotoxicity at 24 h, 25 μg/mL ([10]; HT29, 25 μg/mL) was 36.1%. It also gave a cytotoxicity at 24 h, 50 μg/mL ([10]; HT29, 50 μg/mL) of 49.3%, a cytotoxicity at 24 h, 75 μg/mL ([10]; HT29, 75 μg/mL) of 63.8% and a cytotoxicity at 24 h, 100 μg/mL ([10]; HT29, 100 μg/mL) of 90.6%. It also gave a GI50 ([11]; MTT) of over 500 µg/mL, an IC50 ([11]; MTT, read-out: IC50) of over 500 µg/mL and an IC (total growth inhibition) ([11]; MTT, read-out: TGI) of over 500 µg/mL. The LC50 (concentration causing 50% net cell loss) ([11]; read-out: LC50) was over 500 µg/mL, the LC50 (concentration giving 50% net cell loss relative to time zero) ([12]; read-out: LC50) was 578 µg/mL (≈ 975 µM) and the GI50 ([12]; C6, MTT) was 2.1 µg/mL (≈ 3.54 µM). It also gave an IC50 ([12]; C6, MTT, read-out: IC50) of 21.9 µg/mL (≈ 36.9 µM), an IC (total growth inhibition) ([12]; C6, MTT, read-out: TGI) of 8.83 µg/mL and an LC50 (concentration giving 50% net cell loss relative to time zero) ([13]; HT-29, read-out: LC50) of over 500 µg/mL. The GI50 ([13]; HT-29, HT29, MTT) was 2.75 µg/mL (≈ 4.64 µM), the IC50 ([13]; HT-29, HT29, MTT, read-out: IC50) was over 500 µg/mL and the IC (total growth inhibition) ([13]; HT-29, HT29, MTT, read-out: TGI) was over 500 µg/mL. It also gave an LC50 (concentration causing 50% net cell loss relative to time zero) ([14]; MCF7, read-out: LC50) of over 500 µg/mL, a GI50 ([14]; MCF7, MTT) of 4.46 µg/mL (≈ 7.53 µM) and an IC50 ([14]; MCF7, MTT, read-out: IC50) of over 500 µg/mL. The IC (total growth inhibition) ([14]; MCF7, MTT, read-out: TGI) was over 500 µg/mL, the LC50 (concentration causing 50% net cell loss) ([15]; A549, read-out: LC50) was over 500 µg/mL and the GI50 ([15]; A549, MTT) was over 500 µg/mL. For the same molecule, the IC50 ([15]; A549, MTT, read-out: IC50) was over 500 µg/mL, the IC (total growth inhibition) ([15]; A549, MTT, read-out: TGI) was over 500 µg/mL and the GI50 ([16]; MTT) was 4.25 µg/mL (≈ 7.17 µM). The IC50 ([16]; MTT, read-out: IC50) was over 500 µg/mL, the IC (total growth inhibition) ([16]; MTT, read-out: TGI) was over 500 µg/mL and the LC50 (concentration causing 50% net cell loss relative to time zero) ([16]; read-out: LC50) was over 500 µg/mL. For the same molecule, the cytotoxicity at 24 h, 25 μg/mL ([17]; C6, 25 μg/mL) was 26.4%, the cytotoxicity at 24 h, 50 μg/mL ([17]; C6, 50 μg/mL) was 42.2% and the cytotoxicity at 24 h, 75 μg/mL ([17]; C6, 75 μg/mL) was 77%. For the same molecule, the cytotoxicity at 24 h, 100 μg/mL ([17]; C6, 100 μg/mL) was 84.8%.
